Species: Rattus norvegicus
Test: DrugMatrix - Regimen: Daily Repeat
Format: toxicity, organism-based, Sprague-Dawley
Set-up: regimen Daily Repeat, gender Male, age 6-8 weeks
Settings: in vivo, po, route oral GAVAGE, vehicle .5 % CMC; for ABSOLUTE BASOPHIL / ABSOLUTE EOSINOPHIL / ABSOLUTE LYMPHOCYTE / ABSOLUTE MONOCYTE / ABSOLUTE SEGMENTED NEUTROPHIL / BASOPHIL / EOSINOPHIL / ERYTHROCYTE COUNT / HEMATOCRIT / HEMOGLOBIN / LEUKOCYTE COUNT / LYMPHOCYTE / MEAN CORPUSCULAR HEMOGLOBIN / MEAN CORPUSCULAR HEMOGLOBIN CONCENTRATION / MEAN CORPUSCULAR VOLUME / MONOCYTE / NEUTROPHIL / NUCLEATED RED BLOOD CELLS / PLATELET COUNT: tissue Blood; for ALANINE AMINOTRANSFERASE / ALBUMIN / ALKALINE PHOSPHATASE / ASPARTATE AMINOTRANSFERASE / BLOOD UREA NITROGEN / CARBON DIOXIDE / CHLORIDE / CHOLESTEROL / CREATINE PHOSPHOKINASE / CREATININE / GLUCOSE / LACTATE DEHYDROGENASE / LIPASE / PHOSPHORUS / POTASSIUM / SODIUM / TOTAL BILIRUBIN / TOTAL PROTEIN / URIC ACID: tissue Plasma
[1] = 25 mg/kg, 120 h, dose level Low, time 5 day
[2] = 1400 mg/kg, 72 h, dose level High, time 3 day
[3] = 1400 mg/kg, 120 h, dose level High, time 5 day

C[C@](O)(CS(=O)(=O)c1ccc(F)cc1)C(=O)Nc1ccc(C#N)c(C(F)(F)F)c1 [(R)-BICALUTAMIDE]
ABSOLUTE BASOPHIL [1]: 0 CELLS/uL | ABSOLUTE EOSINOPHIL [1]: 40.67 CELLS/uL | ABSOLUTE LYMPHOCYTE [1]: 7260.33 CELLS/uL | ABSOLUTE MONOCYTE [1]: 84 CELLS/uL | ABSOLUTE SEGMENTED NEUTROPHIL [1]: 381.67 CELLS/uL | BASOPHIL [1]: 0% | EOSINOPHIL [1]: 0.67% | ERYTHROCYTE COUNT [1]: 5.41 x10E6/uL | HEMATOCRIT [1]: 34.23% | HEMOGLOBIN [1]: 13.2 G/DL | LEUKOCYTE COUNT [1]: 7.77 x10E3/uL | LYMPHOCYTE [1]: 92.33% | MEAN CORPUSCULAR HEMOGLOBIN [1]: 24.4 pg | MEAN CORPUSCULAR HEMOGLOBIN CONCENTRATION [1]: 38.6 G/DL | MEAN CORPUSCULAR VOLUME [1]: 63.13 fL | MONOCYTE [1]: 1.33% | NEUTROPHIL [1]: 5.67% | NUCLEATED RED BLOOD CELLS [1]: 0 /100WBC | PLATELET COUNT [1]: 1128.67 x10E3/uL | ALANINE AMINOTRANSFERASE [1]: 51.67 u/L | ALBUMIN [1]: 4.37 G/DL | ALKALINE PHOSPHATASE [1]: 358.33 u/L | ASPARTATE AMINOTRANSFERASE [1]: 82.33 u/L | BLOOD UREA NITROGEN [1]: 14.67 mg/dL | CARBON DIOXIDE [1]: 26.67 mmol/L | CHLORIDE [1]: 103.67 MEQ/L | CHOLESTEROL [1]: 67.33 mg/dL | CREATINE PHOSPHOKINASE [1]: 179.33 u/L | CREATININE [1]: 0.2 mg/dL | GLUCOSE [1]: 149.33 mg/dL | LACTATE DEHYDROGENASE [1]: 119.67 u/L | LIPASE [1]: 10 u/L | PHOSPHORUS [1]: 11.83 mg/dL | POTASSIUM [1]: 6.23 MEQ/L | SODIUM [1]: 148.07 MEQ/L | TOTAL BILIRUBIN [1]: 0.2 mg/dL | TOTAL PROTEIN [1]: 6.5 G/DL | URIC ACID [1]: 1.37 mg/dL | ABSOLUTE BASOPHIL [2]: 0 CELLS/uL | ABSOLUTE EOSINOPHIL [2]: 0 CELLS/uL | ABSOLUTE LYMPHOCYTE [2]: 11798 CELLS/uL | ABSOLUTE MONOCYTE [2]: 169.33 CELLS/uL | ABSOLUTE SEGMENTED NEUTROPHIL [2]: 799.33 CELLS/uL | BASOPHIL [2]: 0% | EOSINOPHIL [2]: 0% | ERYTHROCYTE COUNT [2]: 5.52 x10E6/uL | HEMATOCRIT [2]: 36.3% | HEMOGLOBIN [2]: 14.03 G/DL | LEUKOCYTE COUNT [2]: 12.77 x10E3/uL | LYMPHOCYTE [2]: 92.67% | MEAN CORPUSCULAR HEMOGLOBIN [2]: 25.5 pg | MEAN CORPUSCULAR HEMOGLOBIN CONCENTRATION [2]: 38.63 G/DL | MEAN CORPUSCULAR VOLUME [2]: 65.97 fL | MONOCYTE [2]: 1.33% | NEUTROPHIL [2]: 6% | NUCLEATED RED BLOOD CELLS [2]: 0 /100WBC | PLATELET COUNT [2]: 1068 x10E3/uL | ALANINE AMINOTRANSFERASE [2]: 48.67 u/L | ALBUMIN [2]: 4.33 G/DL | ALKALINE PHOSPHATASE [2]: 367.67 u/L | ASPARTATE AMINOTRANSFERASE [2]: 67 u/L | BLOOD UREA NITROGEN [2]: 16.67 mg/dL | CARBON DIOXIDE [2]: 23 mmol/L | CHLORIDE [2]: 102 MEQ/L | CHOLESTEROL [2]: 87.33 mg/dL | CREATINE PHOSPHOKINASE [2]: 182.33 u/L | CREATININE [2]: 0.19 mg/dL | GLUCOSE [2]: 155.33 mg/dL | LACTATE DEHYDROGENASE [2]: 84.67 u/L | LIPASE [2]: 11 u/L | PHOSPHORUS [2]: 11.8 mg/dL | POTASSIUM [2]: 7.17 MEQ/L | SODIUM [2]: 143.37 MEQ/L | TOTAL BILIRUBIN [2]: 0.2 mg/dL | TOTAL PROTEIN [2]: 6.23 G/DL | URIC ACID [2]: 1.57 mg/dL | ABSOLUTE BASOPHIL [3]: 0 CELLS/uL | ABSOLUTE EOSINOPHIL [3]: 139 CELLS/uL | ABSOLUTE LYMPHOCYTE [3]: 14390.33 CELLS/uL | ABSOLUTE MONOCYTE [3]: 36 CELLS/uL | ABSOLUTE SEGMENTED NEUTROPHIL [3]: 934.67 CELLS/uL | BASOPHIL [3]: 0% | EOSINOPHIL [3]: 1% | ERYTHROCYTE COUNT [3]: 5.54 x10E6/uL | HEMATOCRIT [3]: 34.93% | HEMOGLOBIN [3]: 13.77 G/DL | LEUKOCYTE COUNT [3]: 15.5 x10E3/uL | LYMPHOCYTE [3]: 92.67% | MEAN CORPUSCULAR HEMOGLOBIN [3]: 24.87 pg | MEAN CORPUSCULAR HEMOGLOBIN CONCENTRATION [3]: 39.4 G/DL | MEAN CORPUSCULAR VOLUME [3]: 63.03 fL | MONOCYTE [3]: 0.33% | NEUTROPHIL [3]: 6% | NUCLEATED RED BLOOD CELLS [3]: 0.33 /100WBC | PLATELET COUNT [3]: 1189.67 x10E3/uL | ALANINE AMINOTRANSFERASE [3]: 51.33 u/L | ALBUMIN [3]: 4.37 G/DL | ALKALINE PHOSPHATASE [3]: 367.67 u/L | ASPARTATE AMINOTRANSFERASE [3]: 74.33 u/L | BLOOD UREA NITROGEN [3]: 16.67 mg/dL | CARBON DIOXIDE [3]: 27.33 mmol/L | CHLORIDE [3]: 102 MEQ/L | CHOLESTEROL [3]: 87.67 mg/dL | CREATINE PHOSPHOKINASE [3]: 121.67 u/L | CREATININE [3]: 0.22 mg/dL | GLUCOSE [3]: 150.33 mg/dL | LACTATE DEHYDROGENASE [3]: 70.67 u/L | LIPASE [3]: 10 u/L | PHOSPHORUS [3]: 12.73 mg/dL | POTASSIUM [3]: 6.81 MEQ/L | SODIUM [3]: 146.27 MEQ/L | TOTAL BILIRUBIN [3]: 0.2 mg/dL | TOTAL PROTEIN [3]: 6.3 G/DL | URIC ACID [3]: 1.8 mg/dL
